Assay: Elution of dyes from loaded microspheres in PBS
Assay type: physicochemical
Details: from APTA43 microspheres; 1 ml in 200 mL PBS; initial loading 8.6 umols per mL of microspheres
Experimental: Microspheres of each polymer formulation were loaded with equal quantities of each dye. 1 ml samples of dye-loaded microspheres were added to 200 mL of PBS in an amber jar. The microsphere suspensions were rolled to provide continuous mixing. At each time point the eluent was sampled and assayed by UV/Vis spectrophotmetery as above. The volume of sampled eluent was replaced with fresh PBS to maintain the elution volume. FIG. 5 illustrates the elution profiles of each dye from APTA43 microspheres.

SMILES	initial loaded amount released within 60 minutes
O=S(=O)([O-])c1ccc2ccc3cccc4ccc1c2c34.[Na+] [Formulation P1, 1-pyrenesulfonic acid sodium salt]	80%
O=S(=O)([O-])c1cc(S(=O)(=O)[O-])c2ccc3c(O)cc(O)c4ccc1c2c43.[Na+].[Na+] [Formulation P2, 6,8-dihydroxypyrene-1,3-disulfonic acid disodium salt]	9%
O=S(=O)([O-])c1cc(O)c2ccc3c(S(=O)(=O)[O-])cc(S(=O)(=O)[O-])c4ccc1c2c34.[Na+].[Na+].[Na+] [Formulation P3, 8-hydroxypyrene-1,3,6-trisulfonic acid trisodium salt]	approximately 3%
O.O=S(=O)([O-])c1cc(S(=O)(=O)[O-])c2ccc3c(S(=O)(=O)[O-])cc(S(=O)(=O)[O-])c4ccc1c2c43.[Na+].[Na+].[Na+].[Na+] [Formulation P4, 1,3,6,8-pyrenetetrasulfonic acid hydrate tetrasodium salt]	approximately 3%

Reference: patent US20180250230A1, “POLYMERS AND MICROSPHERES” (BIOCOMPATIBLES UK LIMITED, priority 2015, published 2018)
